Where two headings read alike, the source gives them in different places.

One assay concerns the target T1, Protein Kinase A (Bos taurus, UniProt P00517).
T1 construct: purified from bovine heart; purchased Upstate Biotech 14-114; host or cells: bovine heart
The assay is described as follows: Kinase Selectivity Assay Protein Kinase A. It is filed as biochemical, bovine. The conditions noted are these: Kinase Selectivity, Tables 2a-2k; read-out: PKA IC50. The gist of the method: (§1)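 Biotinylated peptide phosphorylation measured as ^33P-γ-ATP incorporation on streptavidin plates after 1 h at 30° C, 1% DMSO final, enzyme in 50 mM Tris-HCl pH 8.0, 0.1% BSA. Compounds in duplicate at 8 concentrations, 100 uM to 10 pM. IC50 from percent inhibition versus log concentration.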

The subject of assay [1] is HeLa cervical adenocarcinoma. Briefly: Inhibition of Cell Proliferation (14C-thymidine incorporation), HeLa. It counts as cell-based. As to conditions: Homo sapiens, HeLa cell line. On the procedure:
(§2) The ability of a test compound to inhibit the proliferation of cell growth was determined by measuring incorporation of ^14C-labelled thymidine into newly synthesized DNA within the cells. This method was used on cell lines derived from carcinomas originating from several tissues such as HeLa cervical adenocarcinoma (American Type Culture Collection (ATCC), Virginia, Cat. #CCL-2), A375 malignant melanoma (ATCC CRL-1619), SK-OV-3 ovarian adenocarcinoma (ATCC HTB-77) HCT-116 colon carcinoma (CCL-247), PC-3 prostate adenocarcinoma (ATCC CRL-1435), and MDA-MB-231 (Xenogen Corp.) In this way the effect of a compound on cell growth of cells with many different phenotypes can be determined. Cells were trypsinized and counted and 3000-8000 cells were added to each well of a 96-well CytoStar tissue culture treated scintillating microplate (Amersham #RPNQ0160) in complete medium in a volume of 100 μl. Cells were incubated for 24 hours in complete medium at 37° C. in an atmosphere containing 5% CO2. Next, 1 μl of test compound in 100% DMSO was added to the wells of the plate. DMSO only was added to control wells. Cells were incubated for 24 more hours in complete medium at 37° C. in an atmosphere containing 5% CO2. Methyl ^14C-thymidine 56 mCi/mmol (NEN #NEC568 or Amersham #CFA532) was diluted in complete medium and 0.2 uCi/well was added to each well of the CytoStar plate in a volume of 20 μl. The plate was incubated for 24 hours at 37° C. plus 5% CO2 in drug plus ^14C-thymidine. The contents of the plate were discarded into a ^14C radioactive waste container by inverting the plate and the plate was washed twice with 200 μl PBS. 200 μl of PBS is added to each well. The top of the plate was sealed with a transparent plate sealer and a white plate backing sealer (Packard #6005199) was applied to the bottom of the plate. The degree of methyl ^14C-thymidine incorporation was quantified on a Packard Top Count.

In assay [2] the target is T2, Glycogen Synthase Kinase-3 (beta isoform) (Oryctolagus cuniculus, UniProt G1T8E2).
T2 construct: purchased New England Biolabs 6040; host or cells: E. coli
T2 sequence (G1T8E2 1-432): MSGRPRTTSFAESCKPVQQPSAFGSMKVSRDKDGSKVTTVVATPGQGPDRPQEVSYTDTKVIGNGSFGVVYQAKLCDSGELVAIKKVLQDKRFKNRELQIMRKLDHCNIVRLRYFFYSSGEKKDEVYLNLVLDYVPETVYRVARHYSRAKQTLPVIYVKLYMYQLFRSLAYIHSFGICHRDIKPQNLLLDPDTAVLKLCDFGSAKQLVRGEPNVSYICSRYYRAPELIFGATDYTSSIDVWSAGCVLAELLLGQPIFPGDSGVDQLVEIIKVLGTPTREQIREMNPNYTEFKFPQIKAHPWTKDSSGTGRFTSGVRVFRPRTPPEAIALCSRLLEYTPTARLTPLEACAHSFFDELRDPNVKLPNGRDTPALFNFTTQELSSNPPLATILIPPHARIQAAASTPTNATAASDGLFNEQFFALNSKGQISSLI
Briefly: Kinase Selectivity Assay Glycogen Synthase Kinase-3. It is filed as biochemical, rabbit. As to conditions: Kinase Selectivity, Tables 2a-2k; read-out: GSK-3 IC50. Put shortly:
as §1

The next assay has as its system HCT-116 colon carcinoma. The assay is described as follows: Inhibition of Cell Proliferation (14C-thymidine incorporation), HCT-116. It is filed as cell-based. The conditions noted are these: Homo sapiens, HCT-116 cell line. On the procedure:
as §2

The target of assay [3] is T3, PDGF-R (platelet derived growth factor receptor) beta subunit kinase domain (Homo sapiens, UniProt P09619).
T3 construct: nucleotides 1874-3507 of the human PDGF-R beta subunit kinase domain; polyhistidine (N)
T3 sequence (P09619 564-1106): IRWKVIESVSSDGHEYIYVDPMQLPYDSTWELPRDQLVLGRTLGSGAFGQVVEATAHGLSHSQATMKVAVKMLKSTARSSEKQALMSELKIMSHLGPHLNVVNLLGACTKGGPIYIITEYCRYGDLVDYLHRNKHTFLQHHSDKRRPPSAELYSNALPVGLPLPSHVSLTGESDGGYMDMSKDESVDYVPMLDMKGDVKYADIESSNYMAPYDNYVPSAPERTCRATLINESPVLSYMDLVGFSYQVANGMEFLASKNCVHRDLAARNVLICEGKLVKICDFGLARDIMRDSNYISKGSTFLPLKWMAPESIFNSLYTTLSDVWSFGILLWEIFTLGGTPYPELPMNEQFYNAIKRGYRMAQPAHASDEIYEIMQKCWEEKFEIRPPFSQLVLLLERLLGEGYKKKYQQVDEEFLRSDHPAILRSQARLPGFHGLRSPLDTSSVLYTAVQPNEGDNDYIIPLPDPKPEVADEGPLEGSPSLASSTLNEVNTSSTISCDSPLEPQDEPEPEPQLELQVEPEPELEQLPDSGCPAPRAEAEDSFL
The assay is described as follows: Kinase Selectivity Assay PDGF-R. It counts as biochemical. As to conditions: Kinase Selectivity, Tables 2a-2k; read-out: PDGF-R kinase IC50. The gist of the method: as §1

Assay [4] has as its system PC-3 prostate adenocarcinoma. Briefly: Inhibition of Cell Proliferation (14C-thymidine incorporation), PC-3. It counts as cell-based. As to conditions: Homo sapiens, PC-3 cell line. On the procedure:
as §2
On the technique in general: Incorporation of labelled thymidine or its analogues reports DNA synthesis.

Assay [5] deals with T4, VEGF-R (vascular endothelial growth factor receptor-2) (Rattus norvegicus, UniProt O08775).
T4 construct: polyhistidine (6xHIS) (N)
T4 sequence (O08775 786-1343): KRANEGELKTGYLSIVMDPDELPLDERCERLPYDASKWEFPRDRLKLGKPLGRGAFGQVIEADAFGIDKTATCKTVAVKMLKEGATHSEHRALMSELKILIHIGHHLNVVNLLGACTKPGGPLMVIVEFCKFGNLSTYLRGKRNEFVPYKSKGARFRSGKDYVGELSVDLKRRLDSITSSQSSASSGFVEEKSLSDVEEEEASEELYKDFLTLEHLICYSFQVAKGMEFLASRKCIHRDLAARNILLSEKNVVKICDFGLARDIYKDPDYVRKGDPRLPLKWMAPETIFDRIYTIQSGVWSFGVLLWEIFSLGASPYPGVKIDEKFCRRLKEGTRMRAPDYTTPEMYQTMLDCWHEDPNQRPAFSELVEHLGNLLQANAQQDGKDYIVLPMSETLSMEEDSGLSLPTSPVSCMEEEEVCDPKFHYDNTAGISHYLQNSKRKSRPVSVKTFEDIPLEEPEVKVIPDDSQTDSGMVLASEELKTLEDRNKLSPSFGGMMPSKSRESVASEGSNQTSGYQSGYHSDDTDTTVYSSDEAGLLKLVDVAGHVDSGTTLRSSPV
Briefly: VEGF-R Screening Assay. It counts as biochemical. As to conditions: read-out: VEGF-R IC50.

For the next assay, the system named is A375 malignant melanoma. Briefly: Inhibition of Cell Proliferation (14C-thymidine incorporation), A375. The conditions noted are these: Homo sapiens, A-375, A375 cell line. It counts as cell-based. As to the method: as §2
[6] abbreviates: Kinase Selectivity, Tables 2a-2k.

As to `Cc1nc(C)c(C(=O)n2nc(Nc3ccc(S(N)(=O)=O)cc3)nc2N)s1` [Cpd 34, 4-[[5-amino-1-[(2,4-dimethyl-5-thiazolyl)carbonyl]-1H-1,2,4-triazol-3-yl]amino]-benzenesulfonamide], the IC50 (in general, the concentration that inhibits the measured activity by half) on Protein Kinase A was greater than 100 µM; in assay [1], 707 nM; in assay [2], 0.015 µM; in the assay on HCT-116 colon carcinoma, 996 nM; in assay [3], 0.292 µM; in assay [4], 626 nM.

Consider `Nc1nc(Nc2ccc(S(N)(=O)=O)cc2)nn1C(=O)c1sccc1Br` [Cpd 35, 4-[[5-amino-1-[(3-bromo-2-thienyl)carbonyl]-1H-1,2,4-triazol-3-yl]amino]-benzenesulfonamide], for which the IC50 is 663 nM in assay [1], 172 nM with HCT-116 colon carcinoma, 231 nM in assay [4] and 0.0463 µM in assay [5] (Table 1).

As for `Cc1ccccc1C(=O)n1nc(Nc2ccc(S(N)(=O)=O)cc2)nc1N` [Cpd 57, 4-[[5-amino-1-(2-methylbenzoyl)-1H-1,2,4-triazol-3-yl]amino]-benzenesulfonamide], the IC50 with A375 malignant melanoma is 113 nM; at Protein Kinase A, greater than 100 µM; in assay [1], 339 nM; in assay [2], 0.098 µM; in the assay on HCT-116 colon carcinoma it was 95 nM; in assay [3], 4.19 µM.

As to `CN1CCN(c2ccc(Nc3nc(N)n(C(=O)c4c(F)cccc4F)n3)cc2)CC1` [Cpd 71, 1-(2,6-difluorobenzoyl)-N^3-[4-(4-methyl-1-piperazinyl)phenyl]-1H-1,2,4-triazole-3,5-diamine], the IC50 was greater than 100 µM on Protein Kinase A; 1920 nM in assay [1]; 1.72 µM in assay [2]; 27 µM in assay [3]; 25 nM in assay [4]; 0.43 µM in assay [5] (setting [6]). In assay [5] (Table 1), the IC50 amounted to 0.43 µM.

Consider `CNS(=O)(=O)c1ccc(Nc2nc(N)n(C(=O)c3c(F)cccc3F)n2)cc1` [Cpd 80, 4-[[5-amino-1-(2,6-difluorobenzoyl)-1H-1,2,4-triazol-3-yl]amino]-N-methyl-benzenesulfonamide], for which the IC50 was 880 nM in assay [1], 272 nM in assay [4] and 0.935 µM in assay [5] (Table 1).

Consider `CNS(=O)(=O)c1ccc(Nc2nc(N)n(C(=O)c3sccc3C)n2)cc1` [Cpd 82, 4-[[5-amino-1-[(3-methyl-2-thienyl)carbonyl]-1H-1,2,4-triazol-3-yl]amino]-N-methyl-benzenesulfonamide], for which the IC50 was greater than 100 µM at Protein Kinase A; 245 nM in assay [1]; 0.025 µM in assay [2]; 0.042 µM in assay [3]; 15 nM in assay [4].

On to `CCc1ccc(C(=O)n2nc(Nc3ccc(S(=O)(=O)NC)cc3)nc2N)s1` [Cpd 84, 4-[[5-amino-1-[(5-ethyl-2-thienyl)carbonyl]-1H-1,2,4-triazol-3-yl]amino]-N-methyl-benzenesulfonamide], for which the IC50 on Protein Kinase A was found to be 2.2 µM; in assay [1], 142 nM; in assay [2], 0.019 µM; in assay [3], 0.28 µM; in assay [4] it was 23 nM.

On to `CCc1ccc(C(=O)n2nc(Nc3ccc(S(=O)(=O)NCCN(C)C)cc3)nc2N)s1` [Cpd 103, 4-[[5-amino-1-[(5-ethyl-2-thienyl)carbonyl]-1H-1,2,4-triazol-3-yl]amino]-N-[2-(dimethylamino)ethyl]-benzenesulfonamide], for which the IC50 with A375 malignant melanoma was 115 nM; on Protein Kinase A, greater than 100 µM; in assay [1], 62 nM; in assay [2], 0.013 µM; with HCT-116 colon carcinoma it was 75 nM; in assay [3], 0.702 µM. Moreover, the IC50 in assay [5] (setting [6]) was 0.045 µM; in assay [5] (Table 1), 0.0449 µM.

Consider `Cc1ccsc1C(=O)n1nc(Nc2ccc(S(=O)(=O)NCCN(C)C)cc2)nc1N` [Cpd 104, 4-[[5-amino-1-[(3-methyl-2-thienyl)carbonyl]-1H-1,2,4-triazol-3-yl]amino]-N-[2-(dimethylamino)ethyl]-benzenesulfonamide], for which the IC50 with A375 malignant melanoma is 108 nM; on Protein Kinase A it was greater than 100 µM; in assay [1], 186 nM; in assay [2], 0.02 µM; with HCT-116 colon carcinoma it was 41 nM; in assay [3] it was 0.192 µM.

Take `Cc1cc(C)c(C(=O)n2nc(Nc3ccc(NS(C)(=O)=O)cc3)nc2N)s1` [Cpd 108, N-[4-[[5-amino-1-[(3,5-dimethyl-2-thienyl)carbonyl]-1H-1,2,4-triazol-3-5 yl]amino]phenyl]-methanesulfonamide]: the IC50 in assay [2] worked out at 0.023 µM; in assay [3], 0.217 µM; in assay [5] (setting [6]), 0.03 µM; in assay [5] (Table 1), 0.0307 µM.

In the case of `Cc1ccsc1C(=O)n1nc(Nc2ccc(N3CCNC3=O)cc2)nc1N` [Cpd 113, 1-[4-[[5-amino-1-[(3-methyl-2-thienyl)carbonyl]-1H-1,2,4-triazol-3-yl]amino]phenyl]-2-imidazolidinone], the IC50 at Protein Kinase A was greater than 100 µM; in assay [1] it was 242 nM; in assay [2], 0.071 µM; in the assay on HCT-116 colon carcinoma, 281 nM; in assay [3] it was 0.37 µM; in assay [5] (setting [6]), 0.03 µM. In assay [5] (Table 1), the IC50 came to 0.0302 µM.

For `Cc1ccsc1C(=O)n1nc(Nc2ccc(N3CCCS3(=O)=O)cc2)nc1N` [Cpd 116, N^3-[4-(1,1-dioxido-2-isothiazolidinyl)phenyl]-1-[(3-methyl-2-thienyl)carbonyl]-1H-1,2,4-triazole-3,5-diamine], the IC50 was 639 nM with A375 malignant melanoma; greater than 100 µM on Protein Kinase A; 380 nM in assay [1]; 0.062 µM in assay [2]; 349 nM in the assay with HCT-116 colon carcinoma; 0.302 µM in assay [3]. The IC50 in assay [5] (setting [6]) amounted to 0.026 µM; in assay [5] (Table 1) it was 0.0261 µM.

Regarding `Nc1nc(Nc2ccc(N3CCCS3(=O)=O)cc2)nn1C(=O)c1c(F)cccc1F` [Cpd 117], the IC50 with A375 malignant melanoma is 2190 nM; at Protein Kinase A, greater than 100 µM; in assay [1] it was 2060 nM; in assay [2], 1.04 µM; in the assay with HCT-116 colon carcinoma, 1120 nM; in assay [3], greater than 100 µM. Besides, the IC50 in assay [5] (setting [6]) and in assay [5] (Table 1) was 0.908 µM each time.

Turning to `Nc1nc(Nc2ccc(S(=O)(=O)Nc3ccccn3)cc2)nn1C(=O)c1c(F)cccc1F` [Cpd 118, 4-[[5-amino-1-(2,6-difluorobenzoyl)-1H-1,2,4-triazol-3-yl]amino]-N-(2-pyridinyl)-benzenesulfonamide], the half-maximal inhibitory concentration (IC50) with A375 malignant melanoma was 1620 nM; on Protein Kinase A, greater than 100 µM; in assay [1], 1940 nM; in assay [2], 0.159 µM; in the assay on HCT-116 colon carcinoma, 1170 nM; in assay [3], greater than 100 µM. The IC50 in assay [5] (setting [6]) and in assay [5] (Table 1) was 0.397 µM each time.

For the molecule `Cc1cc(C)c(C(=O)n2nc(Nc3ccc(S(=O)(=O)Nc4ccccn4)cc3)nc2N)s1` [Cpd 120], the IC50 was 259 nM with A375 malignant melanoma; greater than 100 µM on Protein Kinase A; 978 nM in assay [1]; 0.018 µM in assay [2]; 334 nM in the assay on HCT-116 colon carcinoma; 0.822 µM in assay [3]. Moreover, the IC50 in assay [5] (setting [6]) and in assay [5] (Table 1) was 0.082 µM each time.

`Cc1ccc(F)c(C(=O)n2nc(N)nc2Nc2ccc(S(N)(=O)=O)cc2)c1F` [Cpd 123, 4-[[3-amino-1-(2,6-difluoro-3-methylbenzoyl)-1H-1,2,4-triazol-5-yl]amino]-benzenesulfonamide]: the IC50 in the assay on A375 malignant melanoma is greater than 10000 nM; at Protein Kinase A it was greater than 100 µM; in assay [1] it was 28500 nM; in assay [2], 3.01 µM; with HCT-116 colon carcinoma it was 4140 nM; in assay [3], greater than 100 µM.
